Molecular target: T1, Human AMPK α2ß2γ1 (Homo sapiens, UniProt O43741+P54646)
T1 construct: The full length cDNAs of human AMPK ß2 (NM_005399.3) and human AMPK α2 (NM_006252.3); The full length cDNAs of human AMPK ß2 (NM_005399.3); 6xHis (N); made in house; host or cells: Escherichia coli BL21 CodonPlus (DE3)-RIL
Test: Test Example 2: evaluation of an activator for AMP-activated protein kinase (AMPK), LabChip mobility shift assay with CaMKK2-phosphorylated enzyme
Type: biochemical
Conditions: for EC150 (compound concentration showing 150% relative to the control (100%)): FL-Peptide 7 substrate, 25° C., 2 hours; for Emax: read-out: Emax (maximum rate of increase in activity within the measurement range)
Description: The full length cDNAs of human AMPK ß2 (NM_005399.3) and human AMPK α2 (NM_006252.3) were inserted into the MCS1 and MCS2 of the pETDuet-1 vector to prepare a human AMPK ß2 and human AMPK α2 (6× His tag at the 5′ terminus) expressing plasmid. The plasmid was cotransfected with an expression plasmid, in which the full length cDNA of human AMPK γ1 (NM_002733.3) had been inserted into pET28b(+), into BL21 CodonPlus (DE3)-RIL to obtain an expression strain. The expression strain was cultured in TB medium, followed by induction with 0.5 mM IPTG, and cultured at 25° C. for 3 hours and then harvested. After ultrasonication, supernatant was collected and applied to Histrap FF column (GE) and RESOURCE Q column (GE) to prepare 12.5 mg of purified sample containing three types of subunit from 1.8 L of broth.
Preparation method of human CaMKK2 used to impart activity to AMPK An expression vector, in which the full length cDNA of human CAMKK ß (NM_172226.1) had been inserted into pGEX-6P-3, was transfected into BL21 Star (DE3). The expression strain was cultured in TB medium, followed by induction with 0.5 mM IPTG, and cultured at 25° C. for 3 hours and then harvested. After ultrasonication, supernatant was collected and applied to GSTrap FF column (GE) to prepare 14 mg of GST-fused CAMKK ß from 720 ml of broth.
Thus, phosphorylation treatment was carried out as pretreatment.
Human AMPK α2ß2γ1 in an amount to give a conversion rate of approximately 10% by reaction for 2 hours, and CaMKK2 in an amount capable of sufficiently imparting activity to AMPK for one hour were mixed in a buffer solution consisting of a 50 mM HEPES-NaOH buffer solution (pH 7.0), 100 mM NaCl, 5 mM magnesium chloride, 0.1% bovine serum albumin, 0.2 mM sodium orthovanadate(V), 1 mM ethylene glycol-bis(2-aminoethyl ether)-N,N,N′,N′-tetraacetic acid (EGTA), 5 mM disodium ß-glycerophosphate, 1 mM dithiothreitol and 0.2 mM ATP, and the resulting liquid was left to stand at 25° C. for 1 to 1.5 hours to sufficiently phosphorylate AMPK.
After that, to the enzyme liquid, which had been subjected to phosphorylation treatment, a compound dissolved in DMSO was added so as to have a 1% DMSO concentration. The resulting liquid was left to stand for 10 minutes.
To the liquid, a substrate solution consisting of a 50 mM HEPES-NaOH buffer solution (pH 7.0), 100 mM NaCl, 10 mM magnesium chloride, 0.1% bovine serum albumin, 0.2 mM sodium orthovanadate(V), 1 mM ethylene glycol-bis(2-aminoethyl ether)-N,N,N′,N′-tetraacetic acid (EGTA), 5 mM disodium ß-glycerophosphate, 2 mM dithiothreitol, 0.4 mM ATP and 3 μM FL-Peptide 7 (manufactured by Caliper Life Sciences, Inc.) was added in equal amount (10 μl in total). The resulting liquid was allowed to react at 25° C. for 2 hours, and 10 μl of 20 mM EDTA was added thereto to stop the reaction.
To detect phosphorylated fluorescent substrates, the reaction mixture was applied to a measuring device, LabChip EZ Reader II manufactured by Caliper Life Science, Inc., for detecting fluorescence by using differences in mobility due to differences in charge. The setting conditions for the device were pressure, −1.5 PSI; upstream voltage, −2250 V; downstream voltage, −400 V; post sample buffer sip time, 40 seconds; final delay, 120 seconds; and peak order, Product First.
A conversion rate was calculated from the peak heights of the obtained substrate and product. The conversion rate when not containing a compound was used as a control, and a concentration dependent curve was made by plotting the rate of increase in activity to the control at each concentration of a compound.

T1 sequence (P54646 whole entry): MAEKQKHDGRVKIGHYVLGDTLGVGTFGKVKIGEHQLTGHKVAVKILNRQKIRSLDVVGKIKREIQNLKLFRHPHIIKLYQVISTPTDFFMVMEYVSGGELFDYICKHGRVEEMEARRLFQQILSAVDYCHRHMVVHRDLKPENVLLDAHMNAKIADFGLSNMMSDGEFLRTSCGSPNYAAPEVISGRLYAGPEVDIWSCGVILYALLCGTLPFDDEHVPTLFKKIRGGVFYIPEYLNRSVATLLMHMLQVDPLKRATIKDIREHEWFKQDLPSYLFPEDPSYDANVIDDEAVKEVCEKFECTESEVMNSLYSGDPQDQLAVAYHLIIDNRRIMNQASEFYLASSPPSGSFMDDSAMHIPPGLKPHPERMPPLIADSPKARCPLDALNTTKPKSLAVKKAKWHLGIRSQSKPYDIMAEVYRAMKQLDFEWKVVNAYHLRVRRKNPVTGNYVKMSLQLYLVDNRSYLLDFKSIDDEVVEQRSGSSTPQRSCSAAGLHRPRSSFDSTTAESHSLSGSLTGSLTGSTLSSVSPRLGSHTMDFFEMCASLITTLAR
T1 sequence (O43741 whole entry): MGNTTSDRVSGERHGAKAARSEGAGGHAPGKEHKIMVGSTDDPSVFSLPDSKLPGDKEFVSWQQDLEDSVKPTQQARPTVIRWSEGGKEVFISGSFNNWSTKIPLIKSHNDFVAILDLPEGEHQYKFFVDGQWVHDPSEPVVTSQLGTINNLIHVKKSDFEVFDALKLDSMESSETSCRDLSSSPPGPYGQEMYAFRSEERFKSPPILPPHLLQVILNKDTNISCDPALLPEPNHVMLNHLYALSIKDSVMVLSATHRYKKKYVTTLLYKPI
T1 sequence (P54619 whole entry partner): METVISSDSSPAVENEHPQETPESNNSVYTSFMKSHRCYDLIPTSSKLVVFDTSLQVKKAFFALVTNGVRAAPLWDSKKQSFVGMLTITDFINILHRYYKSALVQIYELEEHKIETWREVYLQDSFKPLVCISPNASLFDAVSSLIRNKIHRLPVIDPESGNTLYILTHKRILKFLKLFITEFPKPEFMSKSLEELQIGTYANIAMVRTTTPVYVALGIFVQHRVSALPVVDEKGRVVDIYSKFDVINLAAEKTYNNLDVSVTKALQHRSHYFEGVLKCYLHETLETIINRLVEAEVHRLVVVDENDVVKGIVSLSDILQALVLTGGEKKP

| Structure (SMILES) | EC150 (compound concentration showing 150% relative to the control (100%)) | Emax (relative to control (100%)) | Emax (maximum rate of increase in activity within the measurement range) (relative to control (100%)) |
| --- | --- | --- | --- |
| Cn1nccc1-c1cc(F)c2c(c1)CCC2Nc1nc2nc(O[C@@H]3CO[C@H]4[C@@H]3OC[C@H]4O)[nH]c2cc1Cl (stereo partly shown) [Compound I-2-23] | 12 nM | 709% | – |
| COc1ccc(-c2cc(F)c3c(c2)CCC3Nc2nc3nc(O[C@@H]4CO[C@H]5[C@@H]4OC[C@H]5O)[nH]c3cc2Cl)cn1 (stereo partly shown) [Compound I-2-26] | 7.1 nM | – | 669% |
| O=S(=O)(NCCOc1cc(F)c2c(c1)CCC2Nc1nc2nc(O[C@@H]3CO[C@H]4[C@@H]3OC[C@H]4O)[nH]c2cc1Cl)C(F)F (stereo partly shown) [Compound I-2-32] | 9 nM | 714% | – |
| COCC(=O)NCCOc1cc(F)c2c(c1)CCC2Nc1nc2nc(O[C@@H]3CO[C@H]4[C@@H]3OC[C@H]4O)[nH]c2cc1Cl (stereo partly shown) [Compound I-2-33] | 3 nM | 704% | – |
| O=C(NCCOc1cc(F)c2c(c1)CCC2Nc1nc2nc(O[C@@H]3CO[C@H]4[C@@H]3OC[C@H]4O)[nH]c2cc1Cl)C1CCC1 (stereo partly shown) [Compound I-2-34] | 6.6 nM | 719% | – |
| CS(=O)(=O)NCCOc1cc(F)c2c(c1)CCC2Nc1nc2nc(O[C@@H]3CO[C@H]4[C@@H]3OC[C@@H]4F)[nH]c2cc1Cl (stereo partly shown) [Compound I-2-35] | 10 nM | 679% | – |
| CC(C)OCCOc1cc(F)c2c(c1)CCC2Nc1nc2nc(O[C@@H]3CO[C@H]4[C@@H]3OC[C@H]4O)[nH]c2cc1Cl (stereo partly shown) [Compound I-2-36] | 3.9 nM | 698% | – |
| CC(C)(O)/C=C/c1cc(F)c2c(c1)CCC2Nc1nc2nc(O[C@@H]3CO[C@H]4[C@@H]3OC[C@H]4O)[nH]c2cc1Cl (stereo partly shown) [Compound I-2-37] | 3.2 nM | 645% | – |
| OC1CC=C(c2cc(F)c3c(c2)CCC3Nc2nc3nc(O[C@@H]4CO[C@H]5[C@@H]4OC[C@H]5O)[nH]c3cc2Cl)CC1 (stereo partly shown) [Compound I-2-38] | 3.1 nM | 725% | – |
| O[C@@H]1CO[C@H]2[C@@H]1OC[C@H]2Oc1nc2nc(N[C@H]3CCc4cc(/C=C/COC5CCCCO5)cc(F)c43)c(Cl)cc2[nH]1 (stereo partly shown) [Compound I-2-39] | 11 nM | 583% | – |
| O[C@@H]1CO[C@H]2[C@@H]1OC[C@H]2Oc1nc2nc(NC3CCc4cc(OCCOC5CC5)cc(F)c43)c(Cl)cc2[nH]1 (stereo partly shown) [Compound I-2-40] | 4.1 nM | 604% | – |
| O[C@@H]1CO[C@H]2[C@@H]1OC[C@H]2Oc1nc2nc(NC3CCc4cc(OCCOC5CCC5)cc(F)c43)c(Cl)cc2[nH]1 (stereo partly shown) [Compound I-2-41] | 10 nM | 604% | – |
| O[C@@H]1CO[C@H]2[C@@H]1OC[C@H]2Oc1nc2nc(NC3CCc4cc(OCCOC5CCCC5)cc(F)c43)c(Cl)cc2[nH]1 (stereo partly shown) [Compound I-2-42] | 9.1 nM | 600% | – |
| CC(C)(C)OCCOc1cc(F)c2c(c1)CCC2Nc1nc2nc(O[C@@H]3CO[C@H]4[C@@H]3OC[C@H]4O)[nH]c2cc1Cl (stereo partly shown) [Compound I-2-43] | 31 nM | 612% | – |
| COCOCCOc1cc(F)c2c(c1)CCC2Nc1nc2nc(O[C@@H]3CO[C@H]4[C@@H]3OC[C@H]4O)[nH]c2cc1Cl (stereo partly shown) [Compound I-2-44] | 3.8 nM | 595% | – |
| Cc1cc(-c2cc(F)c3c(c2)CC[C@@H]3Nc2nc3nc(O[C@@H]4CO[C@H]5[C@@H]4OC[C@H]5O)[nH]c3cc2Cl)cnn1 [Compound I-2-45] | 2.1 nM | 711% | – |
| Cc1ncc(-c2cc(F)c3c(c2)CC[C@@H]3Nc2nc3nc(O[C@@H]4CO[C@H]5[C@@H]4OC[C@H]5O)[nH]c3cc2Cl)cn1 [Compound I-2-46] | 3.3 nM | 708% | – |
| O[C@@H]1CO[C@H]2[C@@H]1OC[C@H]2Oc1nc2nc(N[C@H]3CCc4cc(C5=CCOC5)cc(F)c43)c(Cl)cc2[nH]1 [Compound I-2-47] | 2.3 nM | 724% | – |
| CC(C)n1cc(-c2cc(F)c3c(c2)CC[C@@H]3Nc2nc3nc(O[C@@H]4CO[C@H]5[C@@H]4OC[C@H]5O)[nH]c3cc2Cl)ccc1=O [Compound I-2-48] | 6.2 nM | 737% | – |
| O[C@@H]1CO[C@H]2[C@@H]1OC[C@H]2Oc1nc2nc(NC3CCc4cc(O[C@@H]5CCOC5)cc(F)c43)c(Cl)cc2[nH]1 (stereo partly shown) [Compound I-2-49] | 3.4 nM | 667% | – |
| O[C@@H]1CO[C@H]2[C@@H]1OC[C@H]2Oc1nc2nc(NC3CCc4cc(O[C@H]5CCOC5)cc(F)c43)c(Cl)cc2[nH]1 (stereo partly shown) [Compound I-2-50] | 1.9 nM | 678% | – |
| O[C@@H]1CO[C@H]2[C@@H]1OC[C@H]2Oc1nc2nc(NC3CCc4cc(OC5COC5)cc(F)c43)c(Cl)cc2[nH]1 (stereo partly shown) [Compound I-2-51] | 4.7 nM | 688% | – |
| COCCCOc1cc(F)c2c(c1)CCC2Nc1nc2nc(O[C@@H]3CO[C@H]4[C@@H]3OC[C@H]4O)[nH]c2cc1Cl (stereo partly shown) [Compound I-2-52] | 3.7 nM | 629% | – |
| O[C@@H]1CO[C@H]2[C@@H]1OC[C@H]2Oc1nc2nc(NC3CCc4cc(OCC5COC5)cc(F)c43)c(Cl)cc2[nH]1 (stereo partly shown) [Compound I-2-53] | 4 nM | 637% | – |
| CC1(COc2cc(F)c3c(c2)CCC3Nc2nc3nc(O[C@@H]4CO[C@H]5[C@@H]4OC[C@H]5O)[nH]c3cc2Cl)COC1 (stereo partly shown) [Compound I-2-54] | 1.5 nM | 643% | – |
| CS(=O)(=O)CCCOc1cc(F)c2c(c1)CCC2Nc1nc2nc(O[C@@H]3CO[C@H]4[C@@H]3OC[C@H]4O)[nH]c2cc1Cl (stereo partly shown) [Compound I-2-55] | 3.6 nM | 637% | – |
| COc1ncc(-c2cc(F)c3c(c2)CC[C@@H]3Nc2nc3nc(O[C@@H]4CO[C@H]5[C@@H]4OC[C@H]5O)[nH]c3cc2Cl)cn1 [Compound I-2-56] | 0.81 nM | 681% | – |
| O[C@@H]1CO[C@H]2[C@@H]1OC[C@H]2Oc1nc2nc(N[C@H]3CCc4cc(-c5cnc(C6CC6)nc5)cc(F)c43)c(Cl)cc2[nH]1 [Compound I-2-57] | 11 nM | 636% | – |
| O[C@@H]1CO[C@H]2[C@@H]1OC[C@H]2Oc1nc2nc(NC3CCc4cc(OCCOCC(F)F)cc(F)c43)c(Cl)cc2[nH]1 (stereo partly shown) [Compound I-2-59] | 4.5 nM | 634% | – |

Source: patent US20190135834A1, “5-SUBSTITUTED AZABENZIMIDAZOLE DERIVATIVE HAVING ???? ACTIVATION ACTION” (Shionogi & Co., Ltd., priority 2016, published 2019)
